Reference: patent US12320800B2, “High-throughput automation of organoids for identifying therapeutic strategies” (UNIVERSITY OF WASHINGTON, priority 2018, dated 2025)
“Also recorded” adds a separate entry of the source.

How the values were obtained:
[1] = test system: Polycystic Kidney Disease (PKD) patients; details: cited from earlier work
[2] = test system: PKD1−/− and PKD2−/− mutant organoids; experiment: Prophylactic effect of myosin activators on cyst formation in PKD organoids in suspension; type: cell-based, human
Description: (§1) Cyst formation. In adherent cultures (untreated), ‘cysts’ were identified as large, balloon-like, translucent structures that swayed in response to agitation. Flat rings and dilated tubules were not counted as cysts and occasionally appeared even in non-PKD controls. […] Wells were imaged using a Nikon TiE inverted wide-field microscope and cysts were quantified using ImageJ cell counter. To generate large cysts in suspension, adherent organoids were microdissected with a 23-gauge syringe needle from 24-well plates on an inverted phase-contrast microscope, and carefully transferred using a transfer pipette into a low-adhesion 6-well plate (Corning) containing 2 ml RB. The organoids were isolated on the twenty-first day of differentiation, before cysts formed. RB media was changed by gravity every three days, and cystogenesis was assessed at two weeks after replating.
EMD was efficient at rescuing cyst formation at the lowest dose tested (3 μM) and worked in both PKD1^−/− and PKD2^−/− mutant organoids.

myosin = details: Table 5 listing; cited from earlier work
[3] = test system: endothelial cells (ECs) in kidney organoid cultures
Description: Kidney differentiation in microwell plates. hPSCs were dissociated with Accutase (Stem Cell Technologies) and plated onto microwell plates pre-coated with GelTrex in mTeSR1 supplemented with 10 mMRho-kinase inhibitor Y27632 (StemGent). The media was replaced with mTeSR1+1.5% GelTrex at 16 hours, 12 mMCHIR99021 in Advanced RPMI+Glutamax (Life Technologies) at 60 hours, and RB (Advanced RPMI+Glutamax+B27 Supplement, from Life Technologies) at 96 hours. […] RB was changed two days later and every three days thereafter. For experiments involving modulation of endothelial cell media was supplemented with VEGF165 (Peprotech, 12.5 to 200 ng/ml). Alternatively (Protocol B, FIG. 31A), the protocol described by Takasato et al. was adapted for adherent culture: undifferentiated hPSCs were plated overnight and treated the following morning with 8 mM CHIR99021 in APEL media (StemCell Technologies) for 48-72 hr, 30 ng/ml FGF9 (Peprotech)+1 mg/ml heparin (StemCellTechnologies) in APEL for 96 hr, and cultured thereafter in APEL, replaced every three days. Alternatively, to generate endothelial cells without kidney organoids, 100,000 hPSCs/cm2 were plated in mTeSR1+10 mM Y27632+1 mM CHIR99021, replaced with RPMI+B27 minus insulin+1.5% Geltrex+50 ng/mL Activin A (R&D) at 24 h, RPMI+B27 minus insulin+40 ng/mL BMP4 (Peprotech)+1 mL CHIR99021 at 61 h, and StemPro 34 (Thermo Fisher Scientific)+2 mM Glutamax+50 mg/mL ascorbic acid (Sigma)+10 ng/mL BMP4+5 ng/mL bFGF (Peprotech)+300 ng/mL VEGF165 at 85 h for a 72-hour incubation.
Immunohistochemistry. For confocal microscopy, kidney organoids were differentiated on 96-well No, 1.5 coverslip glass-bottom plates (Mat-Tek). To fix, an equal volume of 8% paraformaldehyde (Electron Microscopy Sciences) was added to the culture media (4% final concentration) for 15 minutes at room temperature. […] Fluorescence images were captured using an inverted Nikon epifluorescence Eclipse Ti or A1R confocal microscope. […]

[4] = test system: PKD organoids or isogenic controls; experiment: Cyst formation in adherent kidney organoids treated with forskolin or 8-Br-cAMP; type: cell-based, human
Description: as §1

[5] = scRNA-seq, in the presence of VEGF

For `Cc1ccccc1C(=O)Nc1ccc(C(=O)N2CCCC(O)c3cc(Cl)ccc32)c(C)c1` (stereo not shown) [Tolvaptan], the “effect on PKD cysts (shrinking / prevention)” value ([1]; PKD patients) is listed as “does not shrink PKD cysts or prevent them from forming”, the “improve glomerular filtration rate (GFR)” value ([1]; PKD patients) is listed as about 1.5 ml/min/yr and the side effects ([1]; PKD patients) is listed as “can damage the liver; also recorded: frequent thirst and occasional severe hepatotoxicity”. The “slow the growth of total kidney volume (TKV)” value ([1]; PKD patients) was about 3 %/yr and the “effect on PKD, cyst growth” value ([1]; patients with severe disease) was 3 % year.
In the case of `COC(=O)N1CCN(Cc2cccc(NC(=O)Nc3ccc(C)nc3)c2F)CC1` [omecamtiv mercabil], the “effect on PKD organoid cysts” value [2] is given as “the same effect is not seem; also recorded: do not affect PKD cysts”, the “effect on cyst growth in PKD1−/− organoids” value ([2]; 20 μM, highest dose tried (FIG. 22)) is given as “ineffective at the highest dose that was tried” and the effect (myosin) is given as “↑ cardiac myosin S1”.
For `CCCC[C@@H](C=O)NC(=O)[C@H](CC(C)C)NC(=O)OCc1ccccc1` [calpeptin], the effect (myosin) is given as “↑ Rho-kinase”.
In the case of VEGF, the “increase in ECs expressing CD31 and VE-cadherin” value ([3]; VEGF added during differentiation, immunofluorescence) is reported as “approximately 10 fold”, the “MCAM+ cells, share of all cells” value [3, 5] is reported as 5% and the “MCAM+ cells, share of cells within the six kidney clusters” value [3, 5] is reported as 9.5%.
In the case of `O=S(=O)(NCCNC/C=C/c1ccc(Br)cc1)c1cccc2cnccc12` [H-89], the effect (myosin) is listed as “↓ PKA”.
In the case of `CCCCC[C@H](O)/C=C/[C@@H]1[C@@H](C/C=C\CCCC(=O)O)[C@H]2CO[C@@H]1C2` [U46619], the effect (myosin) is given as “↑ Rho-kinase”.
For `CNc1ccc2oc(C[C@H]3O[C@@]4(CC[C@H]3C)O[C@H]([C@H](C)C(=O)c3ccc[nH]3)[C@H](C)C[C@H]4C)nc2c1C(=O)O` [calcium ionophore], the effect (myosin) is listed as “↑ calmodulin”.
For `C[C@@H](O)[C@@H]1NC(=O)[C@H](CCCCN)NC(=O)[C@@H](Cc2c[nH]c3ccccc23)NC(=O)[C@H](Cc2ccccc2)NC(=O)[C@@H](NC(=O)[C@H](N)Cc2ccccc2)CSSC[C@@H](C(=O)N[C@H](CO)[C@@H](C)O)NC1=O` [octreotide], the “effect on PKD organoid cysts” value [2] was “the same effect is not seem; also recorded: do not affect PKD cysts”.
In the case of `N#C/C(=C\c1cc(O)c(O)c(O)c1)C(=O)NCCCNC(=O)/C(C#N)=C/c1cc(O)c(O)c(O)c1` [Bis-T-23], the effect (myosin) is given as “↑ actin polymerization”.
In the case of `Nc1ncnc2c1nc(Br)n2[C@@H]1O[C@@H]2COP(=O)(O)O[C@H]2[C@H]1O` [8-Br-cAMP], the “doses that did not produce cysts” value ([4]; PKD or control organoids, adherent) is reported as under 1 mM and the “swelling of adherent organoids into cyst-like structures” value ([4]; adherent cultures, added on day 21 of differentiation) is reported as “induced swelling, although the effect was much less pronounced”.
